Laboratory results as given in patent publication US9249132B2, “Substituted bicyclic aromatic compounds as S-nitrosoglutathione reductase inhibitors” (Nivalis Therapeutics, Inc., priority 2010, dated 2016).

Assay: Mouse pharmacokinetic (PK) study
Assay type: in vivo
Details: plasma, male BALB/c mice, PO 10 mg/kg, IV 2 mg/kg
Source text: The mouse was used to determine the pharmacokinetics of compounds of the invention. This species is widely used to assess the bioavailability of compounds by administering both oral (PO) and intravenous (IV) test articles. Efficacy of the compounds of the invention was compared by assessing plasma exposure in male BALB/c mice either via IV or PO administration at the times of peak activity.
Compounds of the invention were reconstituted in a phosphate buffered saline (PBS)/10% Solutol (HS 15) clear solution resulting in a concentration of 0.2 mg/mL and administered to mice (2 mg/kg) as a single IV dose. Animals were dosed via the lateral tail vein. […] The plasma was transferred into labeled polypropylene tubes and frozen at −70° C. until analyzed by LC/MS/MS.
The compounds of the invention were reconstituted in 40% Propylene Glycol/40% Propylene Carbonate/20% of a 5% Sucrose clear solution resulting in a concentration of 2 mg/mL and administered to mice (10 mg/kg) as a single oral dose via gavage. […] The plasma was transferred into labeled polypropylene tubes and frozen at −70° C. until analyzed by LC/MS/MS.
Plasma samples at each timepoint were analyzed using a LC-MS/MS with a lower limit of quantification (LLOQ) of 1 ng/mL. […]
In addition to the above PK parameters, bioavailability (% F) was calculated.

O=C(O)c1ccc(-c2ccc3cc(O)ccc3c2)c(Cl)c1 [Example 1, 3-chloro-4-(6-hydroxynaphthalen-2-yl)benzoic acid]
bioavailability: > 40%
